From patent publication US20250154140A1 (Sunnybrook Research Institute, priority 2022, published 2025)

Key:
[1] = system: diverse panel of 58 kinases; assay: Kinase panel (Eurofins KinaseProfiler); type: biochemical; details: 1 uM
Protocol: For the kinase panel, % inhibition was measured using standardized assay conditions at the KinaseProfiler service (Eurofins Pharma Discovery Services). Compounds were sent for testing as dry powder.

BAX = BAX (Homo sapiens, UniProt Q07812); assay: 1H-15N HSQC NMR chemical shift perturbations with 15N-labelled BAX; type: binding; set-up: NMR experiments used full-length WT BAX at a concentration of 200 μM; made in house; host or cells: Escherichia coli BL21-AI (minimal media, 15N); details: 200 uM BAX
Protocol: All experiments were performed using an independent sample for each measurement and were DMSO matched to account for environment changes due to the solvent. ^15N-labeled BAX was prepared as described above in 50 mM potassium phosphate pH 6, 50 mM NaCl, and 10% D2O. Samples were mixed before loading 40 μL in a 1.7 mm sample tube. […] NMR experiments used full-length WT BAX at a concentration of 200 μM. Experiments were conducted on a 600 MHz Bruker Avance magnet at 25° C. Chemical shift perturbations (CSP) were calculated in CCPNMRv3 using an automated analysis, where all peaks were matched to their extrema and calculated using the equation: […]
In the CSP equation above, α denotes the relative weighting of chemical shift changes of the ^15N relative to ^1H nuclei. ΔδHX and ΔδNx are the observed changes of the proton and nitrogen chemical shifts for residue x, respectively. As a note, all amino acid positions on the HSQC were manually inspected to use the extrema of the nearest identified peak. The absence of a bar in the CSP graph indicates no chemical shift, the presence of a proline, or a missing residue peak not used for analysis. Significance threshold was calculated as the average of chemical shifts across all residues plus the standard deviation. […]

V83W L120W BAX = molecular target: T1, V83W L120W BAX (Homo sapiens, UniProt Q07812, L120W/V83W); assay: ANTS/DPX liposome permeabilization with BAX mutant; type: biochemical; details: 100 nM V83W L120W BAX, 20 nM cBID, 20 uM compound
T1 construct: made in house
Protocol: For ANTS/DPX dye release assays: ANTS (fluorophore; excitation 355 nm, emission 520 nm) and DPX (collisional quencher) are encapsulated in reconstituted liposomes. When the membrane is permeabilized, ANTS and DPX diffuse to the outside of the liposomes, decreasing the effective concentration DPX and therefore quenching by […] is decreased and ANTS fluorescence increases. ANTS/DPX liposomes (8 uL of mg/mL liposome preparation per 100 μL of reaction) were added to individual wells of multi-well plates (100 μL final volume for 96 well plates or (30 μL total volume for 384 well plates) in assay buffer (10 mM HEPES pH 7.2, 200 mM KCl, and 5 mM MgCl2). The background fluorescence of the liposomes and the compound dissolved in DMSO was measured for 10 minutes to ensure fluorescent signal stabilized (F0). Unless explicitly stated, 20 nM cBID and 100 nM BAX were added sequentially to each well and mixed thoroughly. The fluorescence intensity of ANTS was measured every minute for 2-3 hours until the signal stabilizes at a plateau (F). […] The plate was then read a third time to assess the fluorescence of ANTS upon full dissociation of liposomes in each well (F100). The percentage of dye release from the liposomes due to the action of cBID and BAX is calculated as: […]

Sequence of BAX (Q07812 whole entry): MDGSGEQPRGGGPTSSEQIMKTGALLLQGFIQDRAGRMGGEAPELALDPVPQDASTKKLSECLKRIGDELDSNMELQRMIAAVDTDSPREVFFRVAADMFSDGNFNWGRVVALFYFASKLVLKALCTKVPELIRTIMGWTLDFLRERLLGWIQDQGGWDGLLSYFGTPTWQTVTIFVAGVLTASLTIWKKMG
T1 sequence (Q07812 whole entry V83W/L120W): as the sequence (Q07812 whole entry) above, with V83W, L120W counted along it

| Structure (SMILES) | activity across kinase panel (percent kinase inhibition) [1] | binding to BAX (chemical shift perturbations) (BAX) | inhibition of mutant BAX (V83W L120W BAX) |
| --- | --- | --- | --- |
| COc1cc2ccnc(Nc3ccc(F)c(Cl)c3)c2cc1NC(=O)CCCN1CCCCC1 [Compound I-1, N-(1-((3-chloro-4-fluorophenyl)amino)-6-methoxyisoquinolin-7-yl)-4-(piperidin-1-yl)butanamide] | minimal activity | bind the cytosolic conformation of BAX | – |
| COc1cc2ncnc(Nc3ccc(F)c(Cl)c3)c2cc1NC(=O)/C=C/CN1CCCCC1 [Dacomitinib, reference compound] | – | – | reduced inhibition |
